Source: patent US11547697B2, “Heterocyclic compounds and uses thereof” (MILLENNIUM PHARMACEUTICALS, INC., priority 2009, dated 2023)
Read-outs that look alike come from different tables or passages of the source.

Columns and labels:
recombinant mTOR = recombinant mTOR (Homo sapiens (Human), UniProt P42345); assay: mTOR inhibition assay (radiometric or LanthaScreen TR-FRET); assay type: biochemical
Experimental: The compounds described herein can be tested against recombinant mTOR (Invitrogen) in an assay containing 50 mM HEPES, pH 7.5, 1 mM EGTA, 10 mM MgCl2, 2.5 mM, 0.01% Tween, 10 pM ATP (2.5 μCi of μ-32P-ATP), and 3 μg/mL BSA. R^at recombinant PHAS-1/4EBP1 (Calbiochem; 2 mg/mL) is used as a substrate. Reactions are terminated by spotting onto nitrocellulose, which is washed with 1M NaCl/1% phosphoric acid (approximately 6 times, 5-10 minutes each). Sheets are dried and the transferred radioactivity quantitated by phosphorimaging.
For instance, one can use Invitrogen's LanthaScreen™ Kinase assay to test the inhibitors of mTOR disclosed herein. This assay is a time resolved FRET platform that measures the phosphorylation of GFP labeled 4EBP1 by mTOR kinase. The kinase reaction is performed in a white 384 well microtitre plate. The total reaction volume is 20 ul per well and the reaction buffer composition is 50 mM HEPES pH7.5, 0.01% Polysorbate 20, 1 mM EGTA, 10 mM MnCl2, and 2 mM DTT. In the first step, each well receives 2 ul of test compound in 20% dimethylsulphoxide resulting in a 2% DMSO final concentration. Next, 8 ul of mTOR diluted in reaction buffer is added per well for a 60 ng/ml final concentration. To start the reaction, 10 ul of an ATP/GFP-4EBP1 mixture (diluted in reaction buffer) is added per well for a final concentration of 10 μM ATP and 0.5 μM GFP-4EBP1. The plate is sealed and incubated for 1 hour at room temperature. […] The plate is sealed, incubated for 1 hour at room temperature, and then read on a plate reader set up for LanthaScreen™ TR-FRET. Data is analyzed and IC50s are generated using GraphPad Prism 5.

p110α/p85α = p110α/p85α (Homo sapiens (Human), UniProt P42336); assay: PI 3-Kinase (human) HTRF assay, p110α/p85α; assay type: biochemical
[1] = test system: tumor cells with a PI3Kα mutation (e.g., MDA-MB-361 and T47D); assay: Proliferation of tumor cells with PI3Kα mutation; assay type: cell-based; settings: Homo sapiens; T47D cells; read-out: T47D proliferation IC50
p110β/p85α = p110β/p85α (Homo sapiens (Human), UniProt P42338); assay: PI 3-Kinase (human) HTRF assay, p110β/p85α; assay type: biochemical
p110δ/p85α = p110δ/p85α (Homo sapiens (Human), UniProt O00329); assay: PI 3-Kinase (human) HTRF assay, p110δ/p85α; assay type: biochemical
p110γ = p110γ (Homo sapiens (Human), UniProt P48736); assay: PI 3-Kinase (human) HTRF assay, p110γ; assay type: biochemical
Experimental: An exemplary system is PI 3-Kinase (human) HTRF™ Assay from Upstate. […] Briefly, the assay is a time resolved FRET assay that indirectly measures PIP3 product formed by the activity of a PI3-K. The kinase reaction is performed in a microtitre plate (e.g., a 384 well microtitre plate). The total reaction volume is approximately 20 ul per well. In the first step, each well receives 2 ul of test compound in 20% dimethylsulphoxide resulting in a 2% DMSO final concentration. Next, approximately 14.5 ul of a kinase/PIP2 mixture (diluted in 1× reaction buffer) is added per well for a final concentration of 0.25-0.3 ug/ml kinase and 10 μM PIP2. The plate is sealed and incubated for 15 minutes at room temperature. To start the reaction, 3.5 ul of ATP (diluted in 1× reaction buffer) is added per well for a final concentration of 10 μM ATP. The plate is sealed and incubated for 1 hour at room temperature. The reaction is stopped by adding 5 ul of Stop Solution per well and then 5 ul of Detection Mix is added per well. The plate is sealed, incubated for 1 hour at room temperature, and then read on an appropriate plate reader. Data is analyzed and IC50s are generated using GraphPad Prism 5. […] For PI3K α, β, δ, and γ, the nM concentration of inhibitor to reach IC50 is provided.

[2] = in vitro, read-out: PI3K α IC50
[3] = in vitro, read-out: PI3K β IC50
[4] = in vitro, read-out: PI3K δ IC50
[5] = in vitro, read-out: PI3K γ IC50

Sequence of p110α/p85α (P42336 whole entry): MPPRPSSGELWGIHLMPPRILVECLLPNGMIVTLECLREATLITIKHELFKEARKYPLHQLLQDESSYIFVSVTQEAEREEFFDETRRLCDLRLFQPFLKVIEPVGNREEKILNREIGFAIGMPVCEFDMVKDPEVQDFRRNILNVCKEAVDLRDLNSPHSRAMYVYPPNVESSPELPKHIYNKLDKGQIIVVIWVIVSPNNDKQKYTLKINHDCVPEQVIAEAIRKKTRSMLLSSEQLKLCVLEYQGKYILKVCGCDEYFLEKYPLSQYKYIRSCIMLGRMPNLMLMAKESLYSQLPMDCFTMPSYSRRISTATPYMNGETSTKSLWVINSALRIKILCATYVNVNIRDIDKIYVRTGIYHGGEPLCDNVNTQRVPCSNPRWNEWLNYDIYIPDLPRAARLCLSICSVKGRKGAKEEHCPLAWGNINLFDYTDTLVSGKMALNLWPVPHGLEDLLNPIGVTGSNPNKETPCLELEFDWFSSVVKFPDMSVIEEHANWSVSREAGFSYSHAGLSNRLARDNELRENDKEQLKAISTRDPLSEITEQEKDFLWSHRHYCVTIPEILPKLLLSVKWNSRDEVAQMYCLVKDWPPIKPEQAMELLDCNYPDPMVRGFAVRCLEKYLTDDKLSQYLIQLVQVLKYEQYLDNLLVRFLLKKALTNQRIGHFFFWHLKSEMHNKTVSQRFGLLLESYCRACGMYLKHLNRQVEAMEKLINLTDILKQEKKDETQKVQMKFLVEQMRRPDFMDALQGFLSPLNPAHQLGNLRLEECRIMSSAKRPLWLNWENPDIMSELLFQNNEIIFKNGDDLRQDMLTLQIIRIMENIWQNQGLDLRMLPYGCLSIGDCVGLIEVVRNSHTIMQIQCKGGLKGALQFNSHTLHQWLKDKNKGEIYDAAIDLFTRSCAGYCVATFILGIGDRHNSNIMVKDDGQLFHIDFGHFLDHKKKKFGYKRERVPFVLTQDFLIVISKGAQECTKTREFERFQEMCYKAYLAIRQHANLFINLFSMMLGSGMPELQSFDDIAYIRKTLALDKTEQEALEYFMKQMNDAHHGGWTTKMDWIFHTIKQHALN
Sequence of p110α/p85α (P27986 whole entry partner): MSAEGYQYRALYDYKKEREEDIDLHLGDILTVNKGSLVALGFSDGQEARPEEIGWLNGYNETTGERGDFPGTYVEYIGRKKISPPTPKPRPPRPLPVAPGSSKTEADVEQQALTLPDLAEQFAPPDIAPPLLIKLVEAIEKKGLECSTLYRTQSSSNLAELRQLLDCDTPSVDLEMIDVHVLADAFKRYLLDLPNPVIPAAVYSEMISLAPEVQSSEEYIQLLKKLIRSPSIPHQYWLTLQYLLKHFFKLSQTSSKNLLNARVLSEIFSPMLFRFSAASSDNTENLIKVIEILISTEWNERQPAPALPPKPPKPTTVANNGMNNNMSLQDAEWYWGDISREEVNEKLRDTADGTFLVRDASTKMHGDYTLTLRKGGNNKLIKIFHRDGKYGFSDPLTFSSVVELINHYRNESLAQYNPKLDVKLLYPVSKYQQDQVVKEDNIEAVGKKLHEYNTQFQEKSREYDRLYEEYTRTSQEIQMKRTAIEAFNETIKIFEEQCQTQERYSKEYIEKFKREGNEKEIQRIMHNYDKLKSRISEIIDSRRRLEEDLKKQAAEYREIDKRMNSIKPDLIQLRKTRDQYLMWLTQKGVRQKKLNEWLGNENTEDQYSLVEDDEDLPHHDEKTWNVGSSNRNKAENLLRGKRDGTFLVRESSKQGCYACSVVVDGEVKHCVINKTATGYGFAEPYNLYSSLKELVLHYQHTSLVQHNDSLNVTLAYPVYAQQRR
Sequence of p110β/p85α (P42338 whole entry): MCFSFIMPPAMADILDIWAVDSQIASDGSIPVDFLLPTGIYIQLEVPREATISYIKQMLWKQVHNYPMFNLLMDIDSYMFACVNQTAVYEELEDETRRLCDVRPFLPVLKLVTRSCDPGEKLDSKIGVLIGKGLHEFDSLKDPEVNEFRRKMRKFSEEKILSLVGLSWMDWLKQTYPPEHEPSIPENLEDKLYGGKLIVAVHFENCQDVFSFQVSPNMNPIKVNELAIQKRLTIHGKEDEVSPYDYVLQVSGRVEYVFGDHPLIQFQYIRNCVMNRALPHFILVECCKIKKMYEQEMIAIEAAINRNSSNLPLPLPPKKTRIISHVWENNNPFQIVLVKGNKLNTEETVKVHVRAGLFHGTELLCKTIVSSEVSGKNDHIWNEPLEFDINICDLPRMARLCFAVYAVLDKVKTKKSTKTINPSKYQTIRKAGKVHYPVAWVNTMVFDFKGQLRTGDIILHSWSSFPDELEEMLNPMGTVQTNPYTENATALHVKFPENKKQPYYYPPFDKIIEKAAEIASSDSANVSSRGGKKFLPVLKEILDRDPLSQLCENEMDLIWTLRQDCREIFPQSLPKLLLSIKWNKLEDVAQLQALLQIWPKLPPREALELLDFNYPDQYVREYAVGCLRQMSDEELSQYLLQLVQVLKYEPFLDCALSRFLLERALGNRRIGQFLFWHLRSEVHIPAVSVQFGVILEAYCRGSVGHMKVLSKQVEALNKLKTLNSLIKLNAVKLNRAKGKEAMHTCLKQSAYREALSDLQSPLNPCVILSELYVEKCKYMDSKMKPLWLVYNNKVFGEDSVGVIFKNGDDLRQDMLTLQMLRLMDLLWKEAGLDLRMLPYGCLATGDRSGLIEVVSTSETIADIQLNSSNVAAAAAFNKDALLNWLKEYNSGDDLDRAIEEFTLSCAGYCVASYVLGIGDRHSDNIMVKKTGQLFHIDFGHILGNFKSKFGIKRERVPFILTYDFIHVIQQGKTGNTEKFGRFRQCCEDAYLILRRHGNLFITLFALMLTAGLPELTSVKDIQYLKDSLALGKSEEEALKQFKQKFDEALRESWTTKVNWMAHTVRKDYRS
Sequence of p110β/p85α (P27986 whole entry partner): as the sequence (P27986 whole entry partner) above
Sequence of p110γ (P48736 whole entry): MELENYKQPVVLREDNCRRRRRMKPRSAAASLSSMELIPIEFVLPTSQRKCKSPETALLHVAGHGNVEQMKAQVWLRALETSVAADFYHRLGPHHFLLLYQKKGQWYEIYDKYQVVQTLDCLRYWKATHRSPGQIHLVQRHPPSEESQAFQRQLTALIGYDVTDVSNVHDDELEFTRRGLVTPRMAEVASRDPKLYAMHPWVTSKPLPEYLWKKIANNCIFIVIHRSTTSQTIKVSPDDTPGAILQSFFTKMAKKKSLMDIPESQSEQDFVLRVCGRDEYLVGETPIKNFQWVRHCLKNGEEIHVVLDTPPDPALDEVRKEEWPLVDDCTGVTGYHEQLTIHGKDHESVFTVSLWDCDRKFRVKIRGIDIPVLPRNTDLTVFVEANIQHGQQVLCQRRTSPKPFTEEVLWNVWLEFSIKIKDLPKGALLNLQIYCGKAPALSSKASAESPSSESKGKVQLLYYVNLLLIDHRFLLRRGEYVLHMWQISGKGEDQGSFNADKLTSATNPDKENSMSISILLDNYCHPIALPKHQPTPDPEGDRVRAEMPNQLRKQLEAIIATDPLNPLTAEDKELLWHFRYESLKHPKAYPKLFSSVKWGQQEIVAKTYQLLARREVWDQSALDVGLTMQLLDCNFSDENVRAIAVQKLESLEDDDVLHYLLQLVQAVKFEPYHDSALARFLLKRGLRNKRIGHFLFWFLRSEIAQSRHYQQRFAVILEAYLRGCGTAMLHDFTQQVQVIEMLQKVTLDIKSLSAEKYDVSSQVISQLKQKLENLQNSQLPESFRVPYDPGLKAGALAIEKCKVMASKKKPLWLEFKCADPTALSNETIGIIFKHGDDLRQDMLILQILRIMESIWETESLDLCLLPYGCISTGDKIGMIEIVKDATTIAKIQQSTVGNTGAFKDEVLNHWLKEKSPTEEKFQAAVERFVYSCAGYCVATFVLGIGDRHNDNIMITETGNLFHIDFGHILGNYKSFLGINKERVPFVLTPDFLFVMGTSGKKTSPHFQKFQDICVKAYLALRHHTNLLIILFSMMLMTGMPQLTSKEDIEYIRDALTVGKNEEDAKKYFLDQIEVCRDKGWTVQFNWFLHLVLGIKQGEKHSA
Sequence of p110δ/p85α (O00329 whole entry): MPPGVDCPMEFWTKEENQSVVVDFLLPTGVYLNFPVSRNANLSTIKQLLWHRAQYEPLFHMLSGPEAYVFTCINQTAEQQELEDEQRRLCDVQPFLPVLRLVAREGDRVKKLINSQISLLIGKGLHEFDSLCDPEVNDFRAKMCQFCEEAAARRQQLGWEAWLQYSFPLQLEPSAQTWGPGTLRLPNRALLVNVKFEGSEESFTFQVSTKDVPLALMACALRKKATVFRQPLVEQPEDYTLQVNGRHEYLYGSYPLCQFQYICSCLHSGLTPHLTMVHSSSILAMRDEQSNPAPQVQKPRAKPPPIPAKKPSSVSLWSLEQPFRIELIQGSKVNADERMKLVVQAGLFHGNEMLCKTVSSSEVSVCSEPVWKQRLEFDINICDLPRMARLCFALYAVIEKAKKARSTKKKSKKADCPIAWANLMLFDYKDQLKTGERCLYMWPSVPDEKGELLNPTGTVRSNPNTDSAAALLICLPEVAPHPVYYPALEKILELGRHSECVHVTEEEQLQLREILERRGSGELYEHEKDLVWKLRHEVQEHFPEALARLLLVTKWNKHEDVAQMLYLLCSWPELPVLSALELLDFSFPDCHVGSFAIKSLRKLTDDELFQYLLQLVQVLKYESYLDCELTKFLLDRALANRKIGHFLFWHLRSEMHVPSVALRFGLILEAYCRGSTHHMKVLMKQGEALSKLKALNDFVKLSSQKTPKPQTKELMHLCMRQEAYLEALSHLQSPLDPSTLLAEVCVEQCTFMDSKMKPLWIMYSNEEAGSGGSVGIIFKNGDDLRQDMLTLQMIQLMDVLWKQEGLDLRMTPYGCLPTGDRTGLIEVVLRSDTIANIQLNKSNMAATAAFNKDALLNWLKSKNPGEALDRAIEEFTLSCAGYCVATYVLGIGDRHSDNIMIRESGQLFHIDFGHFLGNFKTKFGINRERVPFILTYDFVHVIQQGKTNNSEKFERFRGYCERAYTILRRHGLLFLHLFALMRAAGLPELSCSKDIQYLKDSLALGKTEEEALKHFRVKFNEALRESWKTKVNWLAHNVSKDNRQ
Sequence of p110δ/p85α (P27986 whole entry partner): as the sequence (P27986 whole entry partner) above

| SMILES | IC50 (recombinant mTOR; in vitro, read-out: MTORC IC50) [µM] | IC50 (p110α/p85α; [2]) [µM] | IC50 [1] [µM] | IC50 (p110β/p85α; [3]) [µM] | IC50 (p110δ/p85α; [4]) [µM] | IC50 (p110γ; [5]) [µM] | IC50 (recombinant mTOR; read-out: MTORC In Vitro IC50) [µM] | IC50 (p110α/p85α; read-out: PI3K α In Vitro IC50) [µM] | IC50 (p110β/p85α; read-out: PI3K β In Vitro IC50) [µM] | IC50 (p110δ/p85α; read-out: PI3K δ In Vitro IC50) [µM] | IC50 (p110γ; read-out: PI3K γ In Vitro IC50) [µM] |
| --- | --- | --- | --- | --- | --- | --- | --- | --- | --- | --- | --- |
| C[C@@H]1CN(C(=O)C2CN(c3cnc4ccc(-c5ccc6oc(N)nc6c5)cc4n3)C2)CCN1 [compound 267] | < 10 | < 0.1 | < 1 | < 10 | < 1 | < 1 |  |  |  |  |  |
| CC(C)[C@@H](N)C(=O)N1CCN(c2cnc3ccc(-c4ccc5oc(N)nc5c4)cc3n2)CC1 [compound 270] | < 10 | < 0.1 | < 1 | < 1 | < 1 | < 1 |  |  |  |  |  |
| Nc1nc2cc(-c3ccc4ncc(N5CC(N6CCOCC6)C5)nc4c3)ccc2o1 [compound 273] | < 1 | < 0.1 | < 1 |  |  | < 10 |  |  |  |  |  |
| CN1CCN(C2CN(c3cnc4ccc(-c5ccc6oc(N)nc6c5)cc4n3)C2)CC1 [compound 274] | < 10 | < 0.1 | < 1 | < 10 | < 10 | < 10 |  |  |  |  |  |
| Nc1nc2cc(-c3ccc4ncc(N5CC(C(=O)N6CCN(C7CC7)CC6)C5)nc4c3)ccc2o1 [compound 276] | < 10 | < 0.1 | < 1 | < 10 | < 1 | < 1 |  |  |  |  |  |
| CN1CCN(c2cnc3ccc(-c4ccc5oc(N)nc5c4)cc3n2)CC1=O [compound 277] | < 10 | < 0.1 | < 1 | < 1 | < 10 | < 1 |  |  |  |  |  |
| Nc1nc2cc(-c3ccc4ncc(N5CCN(C(=O)[C@@H](N)CO)CC5)nc4c3)ccc2o1 [compound 298] | < 10 | < 0.1 | < 10 | < 1 | < 10 | < 10 |  |  |  |  |  |
| CN1CCN(C2CN(C(=O)c3cnc4ccc(-c5ccc6oc(N)nc6c5)cn34)C2)CC1 [compound 303] | < 10 | < 0.1 | < 1 |  | < 10 |  |  |  |  |  |  |
| Nc1nc2cc(-c3ccc4ncc(N5CC(N6CCN(C7CC7)CC6)C5)nc4c3)ccc2o1 [compound 313] | < 10 | < 0.1 |  | < 10 | < 10 | < 10 |  |  |  |  |  |
| Nc1nc2cc(-c3ccc4ncc(N5CC(N6CC[C@@H](O)C6)C5)nc4c3)ccc2o1 [compound 315] | < 1 | < 0.1 |  | < 10 | < 10 | < 10 |  |  |  |  |  |
| Nc1nc2cc(-c3ccc4ncc(N5CCC(n6ccnc6)CC5)nc4c3)ccc2o1 [compound 345] | < 10 | < 0.1 |  | < 1 | < 1 | < 1 |  |  |  |  |  |
| Nc1nc2cc(-c3nc(N4CCOCC4)c4cnn(C5CCNCC5)c4n3)ccc2o1 [compound 348] | < 1 | < 1 |  | < 0.1 | < 10 | < 1 |  |  |  |  |  |
| Cc1nccn1C1CN(c2cnc3ccc(-c4ccc5oc(N)nc5c4)cc3n2)C1 [compound 354] | < 10 | < 0.1 | < 1 | < 10 | < 10 | < 10 |  |  |  |  |  |
| CS(=O)(=O)N1CCN(C2CCN(c3cnc4ccc(-c5ccc6oc(N)nc6c5)cc4n3)CC2)CC1 [compound 377] | < 10 | < 0.1 |  | < 10 | < 10 | < 1 |  |  |  |  |  |
| CN(C)[C@@H]1CCN(c2cnc3ccc(-c4ccc5oc(N)nc5c4)cc3n2)C1 [compound 378] | < 1 | < 0.1 |  | < 0.1 | < 10 | < 10 |  |  |  |  |  |
| CN1CCN([C@@H]2CCN(c3cnc4ccc(-c5ccc6oc(N)nc6c5)cc4n3)C2)CC1 [compound 379] | < 10 | < 0.1 |  | < 1 | < 10 |  |  |  |  |  |  |
| Nc1nc2cc(-c3ccc4ncc(N5CCNC(C(F)(F)F)C5)nc4c3)ccc2o1 (stereo not shown) [compound 384] | < 1 | < 0.1 |  | < 1 | < 10 | < 1 |  |  |  |  |  |
| CC1(C)CN(C2CN(c3cnc4ccc(-c5ccc6oc(N)nc6c5)cc4n3)C2)CCN1 [compound 388] | < 0.1 | < 0.1 |  | < 1 | < 1 | < 1 |  |  |  |  |  |
| COc1ncc(-c2ccc3ncc(C(=O)N4CCOCC4)n3c2)cc1NS(=O)(=O)c1ccc(F)cc1F [compound 417] |  |  |  |  |  |  | < 1 | < 0.1 | < 0.1 | < 0.1 | < 0.1 |
| CS(=O)(=O)Nc1cc(-c2ccc3ncc(C(=O)N4CCOCC4)n3c2)cnc1Cl [compound 418] |  |  |  |  |  |  | < 0.1 | < 0.1 | < 0.1 | < 0.1 | < 0.1 |
| O=C(c1cnc2ccc(-c3cnc(Cl)c(NS(=O)(=O)c4ccc(F)cc4F)c3)cn12)N1CCOCC1 [compound 419] |  |  |  |  |  |  | < 1 | < 0.1 | < 0.1 | < 0.1 | < 0.1 |
